From US8236828B2, “Insecticidal compounds” (Syngenta Crop Protection LLC, priority 2007, dated 2012)

Assays:
Type in all cases: in vivo
[1] = system: Spodoptera littoralis (Egyptian Cotton Leafworm); assay: Spodoptera littoralis cotton leaf disc spray test; conditions: same protocol, 200 ppm, 3 DAT
Method: (§1) This Example illustrates the pesticidal/insecticidal properties of compounds of formula (I). Tests were performed as follows:
Spodoptera littoralis (Egyptian Cotton Leafworm):
(§2) • Cotton leaf discs were placed on agar in a 24-well microtiter plate and sprayed with test solutions at an application rate of 200 ppm. After drying, the leaf discs were infested with 5 L1 larvae. The samples were checked for mortality, feeding behaviour, and growth regulation 3 days after treatment (DAT). • The following compounds gave at least 80% control of Spodoptera littoralis: A1, A2, A3, A4, A5, A6, A10, A13, A17, A19. Heliothis virescens (Tobacco Budworm): • Eggs (0-24 h old) were placed in 24-well microtiter plate on artificial diet and treated with test solutions at an application rate of 200 ppm (concentration in well 18 ppm) by pipetting. After an incubation period of 4 days, samples were checked for egg mortality, larval mortality, and growth regulation. • The following compounds gave at least 80% control of Heliothis virescens: A1, A2, A3, A4, A5, A6, A7, A9, A10, A11, A12, A14, A17, A18, A19, A21. Plutella xylostella (Diamond Back Moth): • 24-well microtiter plate (MTP) with artificial diet was treated with test solutions at an application rate of 200 ppm (concentration in well 18 ppm) by pipetting. After drying, the MTP's were infested with L2 larvae (7-12 per well). […]

[2] = system: Heliothis virescens (Tobacco Budworm); assay: Heliothis virescens egg test on artificial diet; conditions: same protocol, 200 ppm, 4 days
Method: as §1, §2

[3] = system: Plutella xylostella (Diamond Back Moth); assay: Plutella xylostella larvae test on artificial diet; conditions: same protocol, 200 ppm, 6 days
Method: as §1, §2

[4] = system: Diabrotica balteata (Corn Root Worm); assay: Diabrotica balteata larvae test on artificial diet; conditions: same protocol, 200 ppm, 5 days

Measured: damage to the test organisms

COC(=O)c1ccc(C(=O)Nc2cc(C(=O)Nc3c(C)cc(C4(C(F)(F)F)CC(c5ccc(Cl)cc5)=NO4)cc3C)ccc2C#N)cc1 (centres unmarked) [A20]
little or no damage: all assays above

CSc1cc(C(F)(F)F)ccc1C(=O)Nc1cc(C(=O)Nc2c(C)cc(C3(C(F)(F)F)CC(c4ccc(Cl)cc4)=NO3)cc2C)ccc1C#N (centres unmarked) [A8]
little or no damage: all assays above
